Results from patent US20220145264A1, “CULTURE MEDIUM FOR MAMMALIAN EXPANDED POTENTIAL STEM CELLS, COMPOSITION, AND METHODS THEREOF” (THE UNIVERSITY OF HONG KONG, priority 2019, published 2022).

System: Dox dependent porcine iPSCs
Assay: Screening for the porcine EPSC culture conditions
Assay type: cell-based
Details: 1.0 μM, irrespective of whether Dox was present
Experimental: Dox dependent porcine iPSCs were dissociated in 0.25% trypsin/EDTA solution (Gibco, Cat. No. 25500-054) and seeded in 24-well STO feeder plates at a density of 1×10^4 cells per well. The cells were cultured in M15 supplemented with Dox (Sigma, Cat. No. D9891), Vitamin C (Sigma, Cat. No. 49752-100G) and 10 ng/ml bFGF (SCI) for two days before the culture media was switched to medium supplemented with indicated small molecules and cytokines (Supplementary Table 1). M15 and N2B27 media: see above. AlbumMax media: DMEM/F12 (Gibco, Cat. No. 21331-020), 20% AlbumMax II (Gibco, Cat. No. 11021-037), […] Human Insulin (Sigma, Cat. No. 91077C), 2×B27 Supplement, […] IGFII (R&D, Cat. No. 292-G2-250), 1×Glutamine Penicillin-Streptomycin (Thermo Fisher Scientific, Cat. No. 11140-050), 1×NEAA (Thermo Fisher Scientific, Cat. No. 10378-016) and 0.1 mM 2mercaptoethanol (Sigma, Cat. No. M6250). 20% KSR media: DMEM/F-12 (Gibco, Cat. No. 21331-020), 20% KnockOut Serum Replacement (KSR) (Gibco, Cat. No. 10828-028), 1× glutamine penicillin-streptomycin (Thermo Fisher Scientific, Cat. No. 11140-050), 1×NEAA (Thermo Fisher Scientific, Cat. No. 10378-016) and 0.1 mM 2-mercaptoethanol (Sigma, Cat. No. M6250). […]

O=C(NOC[C@H](O)CO)c1ccc(F)c(F)c1Nc1ccc(I)cc1F [PD0325901]
survival of porcine iPSCs / porcine cells in the screens: deleterious to porcine cells | survival of porcine iPSCs / porcine cells in the screens (listed as PD-0325901): rapidly lost
